Assays:
[1] = tested on: αVβ5 receptor; experiment: Inhibition of biotinylated vitronectin binding to αVβ5 receptor; settings: ratio of IC50 values of Table 1
[2] = target: αVβ5 receptor; design: method as in PMID 22517378, PMID 23424096; settings: free ligands, Table 1; mean ± SD of triplicate determinations; read-out: IC50 αVβ5, inhibition of biotinylated vitronectin binding; cited from earlier work
[3] = target: T1, Recombinant human integrin αVβ3 (Homo sapiens, UniProt P05106+P06756); design: method as in PMID 22517378, PMID 23424096; settings: free ligands, Table 1; mean ± SD of triplicate determinations; read-out: IC50 αVβ3, inhibition of biotinylated vitronectin binding; cited from earlier work
T1 construct: purchased R&D Systems, Minneapolis, MN, USA
T1 sequence (P06756 31-992 limits assumed): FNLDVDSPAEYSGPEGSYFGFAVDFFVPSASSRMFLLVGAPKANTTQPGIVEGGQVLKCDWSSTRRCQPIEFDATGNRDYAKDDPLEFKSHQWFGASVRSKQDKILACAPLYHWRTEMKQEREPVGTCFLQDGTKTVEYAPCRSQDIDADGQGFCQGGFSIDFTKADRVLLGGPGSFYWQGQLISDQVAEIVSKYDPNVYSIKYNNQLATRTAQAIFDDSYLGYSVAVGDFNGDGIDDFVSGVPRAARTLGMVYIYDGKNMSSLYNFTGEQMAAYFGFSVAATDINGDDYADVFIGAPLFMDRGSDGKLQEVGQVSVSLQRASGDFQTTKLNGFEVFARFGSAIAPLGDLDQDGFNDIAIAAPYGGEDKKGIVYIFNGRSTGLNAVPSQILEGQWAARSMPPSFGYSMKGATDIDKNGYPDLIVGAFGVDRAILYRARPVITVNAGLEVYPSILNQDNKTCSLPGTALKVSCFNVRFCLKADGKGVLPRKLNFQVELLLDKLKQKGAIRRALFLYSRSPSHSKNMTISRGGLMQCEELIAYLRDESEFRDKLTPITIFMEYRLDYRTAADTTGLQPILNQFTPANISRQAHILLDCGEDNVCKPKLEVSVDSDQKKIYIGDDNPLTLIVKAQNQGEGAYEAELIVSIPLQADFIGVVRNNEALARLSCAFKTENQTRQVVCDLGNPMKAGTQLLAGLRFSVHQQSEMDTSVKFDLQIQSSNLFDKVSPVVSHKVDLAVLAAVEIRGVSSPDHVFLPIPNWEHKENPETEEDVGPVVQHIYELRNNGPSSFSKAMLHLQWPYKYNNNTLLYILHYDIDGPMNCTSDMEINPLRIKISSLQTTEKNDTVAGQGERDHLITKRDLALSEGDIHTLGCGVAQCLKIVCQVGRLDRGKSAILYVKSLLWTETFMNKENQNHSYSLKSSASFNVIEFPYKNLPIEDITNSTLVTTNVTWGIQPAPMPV
T1 sequence (P05106 27-718 limits assumed): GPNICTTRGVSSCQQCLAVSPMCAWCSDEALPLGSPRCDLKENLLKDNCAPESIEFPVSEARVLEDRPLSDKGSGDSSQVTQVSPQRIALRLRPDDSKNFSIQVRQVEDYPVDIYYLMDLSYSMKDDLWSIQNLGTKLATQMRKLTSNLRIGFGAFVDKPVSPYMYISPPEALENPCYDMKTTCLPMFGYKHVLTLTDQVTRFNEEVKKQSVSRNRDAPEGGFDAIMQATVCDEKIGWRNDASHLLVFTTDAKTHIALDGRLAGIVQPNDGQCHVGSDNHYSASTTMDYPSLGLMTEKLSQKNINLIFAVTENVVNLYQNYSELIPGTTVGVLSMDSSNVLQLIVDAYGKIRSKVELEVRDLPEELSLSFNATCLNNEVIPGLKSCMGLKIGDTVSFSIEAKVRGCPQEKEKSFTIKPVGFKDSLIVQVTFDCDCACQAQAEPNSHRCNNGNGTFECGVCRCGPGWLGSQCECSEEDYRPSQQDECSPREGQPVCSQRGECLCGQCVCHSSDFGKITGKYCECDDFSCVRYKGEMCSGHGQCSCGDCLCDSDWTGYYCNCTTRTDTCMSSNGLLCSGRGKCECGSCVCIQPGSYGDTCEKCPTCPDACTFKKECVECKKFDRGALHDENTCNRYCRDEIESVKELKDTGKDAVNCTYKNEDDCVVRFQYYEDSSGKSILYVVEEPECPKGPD

SMILES: N=C(N)NCCC[C@@H]1NC(=O)CNC(=O)C[C@@H](C(=O)O)NC(=O)C[C@H]2NC(=O)[C@H](CNC1=O)N(Cc1ccccc1)C2=O [Ligand 3, cyclo[DKP-isoDGR]]
- selectivity for αVβ3 in comparison with integrin αVβ5 [1]: 33–34 times
- IC50 [2]: 0.312 ± 0.021 µM
- IC50 [3]: 0.0092 ± 0.0011 µM
